Entries after “also recorded” stand apart in the source; their conditions may differ.
Assays:
[1] = test system: ET-1 stimulated HRMC; assay: Hallmark gene set enrichment in ET-1 stimulated HRMC treated with atrasentan; type: cell-based, human; settings: atrasentan at 1 nM and 25 nM
[2] = test system: g-ddY mice; assay: Albuminuria (UACR) in g-ddY mouse model of IgA nephropathy; type: in vivo
Description: The grouped ddY (g-ddY) mouse is a spontaneous model of early-onset IgA nephropathy characterized by IgA immune complex deposition in the mesangium of the kidney, leading to significant proteinuria, glomerular hypercellularity, mesangioproliferative glomerular lesions, glomerular sclerosis and reduced kidney function, all hallmarks of human IgA nephropathy (J Am Soc Nephrol 23: 1364-1374, 2012). Consistent with human IgA nephropathy, the mesangial IgA deposits in the g-ddY mouse are also accompanied by deposition of IgG and complement C3.

[3] = test system: upstream regulators in kidney tissue of g-ddY mice; assay: IPA upstream regulator analysis, g-ddY mouse kidney RNA-seq; type: in vivo; settings: 30 mg/kg/day
[4] = 10 mg/kg/day, approximately 5 days

CCCCN(CCCC)C(=O)CN1C[C@H](c2ccc3c(c2)OCO3)[C@@H](C(=O)O)[C@@H]1c1ccc(OC)cc1 [Atrasentan, (2R,3R,4S)-4-(1,3-benzodioxol-5-yl)-1-[2-(dibutylamino)-2-oxoethyl]-2-(4-methoxyphenyl)pyrrolidine-3-carboxylic acid]
hallmark gene set enrichment in HRMC model [1]: under-expression of hallmark gene sets
mice with reduced albuminuria ([2]; 10 mg/kg/day group): ⅔
reduction of UACR from baseline ([2]; 10 mg/kg/day in drinking water, approximately 5 days): 28±44%
albuminuria vs baseline (paired t-test) [2, 4]: not significantly changed from baseline
effect on UACR compared to control group (un-paired t-test) [2, 4]: not significant
reduction of UACR from baseline ([2]; 20 mg/kg/day in drinking water, approximately 5 days): 62±8%
effect on UACR compared to control group (un-paired t-test) ([2]; 20 mg/kg/day, approximately 5 days, P=0.0498): statistically significant compared to the control group; also recorded: significantly reduced albuminuria
albuminuria vs baseline (paired t-test) ([2]; 20 mg/kg/day, approximately 5 days, P=0.0593): reduced from baseline to a similar extent
reduction of UACR from baseline ([2]; 30 mg/kg/day in drinking water, approximately 5 days): 63±6%
albuminuria vs baseline (paired t-test) ([2]; 30 mg/kg/day, approximately 5 days): significantly (P=0.0002, paired two-sided t-test) reduced albuminuria from baseline
effect on UACR compared to control group (un-paired t-test) ([2]; 30 mg/kg/day, approximately 5 days, P=0.029): statistically significant compared to the control group; also recorded: significantly reduced albuminuria
magnitude of albuminuria lowering (reduction from baseline) ([2]; 20 and 30 mg/kg/day, approximately 5 days): > 60%
26s Proteasome Activation z-score [3]: −2.122
26s Proteasome Predicted Activation State [3]: Inhibited
ADGRF5 Activation z-score [3]: 2
ADGRF5 Predicted Activation State [3]: Activated
AGT Activation z-score [3]: −4.741
AGT Predicted Activation State [3]: Inhibited
BMP2 Activation z-score [3]: −2.435
BMP2 Predicted Activation State [3]: Inhibited
CCL5 Activation z-score [3]: −2.268
CCL5 Predicted Activation State [3]: Inhibited
CCN5 Activation z-score [3]: 2.45
CCN5 Predicted Activation State [3]: Activated
CCR2 Activation z-score [3]: −3.791
CCR2 Predicted Activation State [3]: Inhibited
CD40LG Activation z-score [3]: −3.607
CD40LG Predicted Activation State [3]: Inhibited
CG Activation z-score [3]: −4.34
CG Predicted Activation State [3]: Inhibited
CHRM3 Activation z-score [3]: −2.425
CHRM3 Predicted Activation State [3]: Inhibited
CSF2 Activation z-score [3]: −5.645
CSF2 Predicted Activation State [3]: Inhibited
CSF3 Activation z-score [3]: −3.116
CSF3 Predicted Activation State [3]: Inhibited
CXCL12 Activation z-score [3]: −2.851
CXCL12 Predicted Activation State [3]: Inhibited
DKK1 Activation z-score [3]: 2.113
DKK1 Predicted Activation State [3]: Activated
EDN1 Activation z-score [3]: −4.26
EDN1 Predicted Activation State [3]: Inhibited
EDNRA Activation z-score [3]: −2.449
EDNRA Predicted Activation State [3]: Inhibited
EGF Activation z-score [3]: −3.649
EGF Predicted Activation State [3]: Inhibited
F2R Activation z-score [3]: −3.04
F2R Predicted Activation State [3]: Inhibited
F3 Activation z-score [3]: −3.862
F3 Predicted Activation State [3]: Inhibited
FAS Activation z-score [3]: 2.887
FAS Predicted Activation State [3]: Activated
FCGR1A Activation z-score [3]: −2.201
FCGR1A Predicted Activation State [3]: Inhibited
FGF2 Activation z-score [3]: −4.33
FGF2 Predicted Activation State [3]: Inhibited
FGF23 Activation z-score [3]: −2.497
FGF23 Predicted Activation State [3]: Inhibited
GDF2 Activation z-score [3]: −2.055
GDF2 Predicted Activation State [3]: Inhibited
GPER1 Activation z-score [3]: −3.527
GPER1 Predicted Activation State [3]: Inhibited
HGF Activation z-score [3]: −5.138
HGF Predicted Activation State [3]: Inhibited
HTR7 Activation z-score [3]: −2.219
HTR7 Predicted Activation State [3]: Inhibited
IFNA2 Activation z-score [3]: −3.465
IFNA2 Predicted Activation State [3]: Inhibited
IFNAR1 Activation z-score [3]: −3.094
IFNAR1 Predicted Activation State [3]: Inhibited
IFNG Activation z-score [3]: −4.604
IFNG Predicted Activation State [3]: Inhibited
IGF1 Activation z-score [3]: −2.676
IGF1 Predicted Activation State [3]: Inhibited
IGF1R Activation z-score [3]: 2.165
IGF1R Predicted Activation State [3]: Activated
IL1A Activation z-score [3]: −4.942
IL1A Predicted Activation State [3]: Inhibited
IL1B Activation z-score [3]: −7.154
IL1B Predicted Activation State [3]: Inhibited
IL2 Activation z-score [3]: −4.023
IL2 Predicted Activation State [3]: Inhibited
IL3 Activation z-score [3]: −3.894
IL3 Predicted Activation State [3]: Inhibited
IL6 Activation z-score [3]: −3.872
IL6 Predicted Activation State [3]: Inhibited
IL6R Activation z-score [3]: −2.179
IL6R Predicted Activation State [3]: Inhibited
IL10 Activation z-score [3]: −2.775
IL10 Predicted Activation State [3]: Inhibited
IL21 Activation z-score [3]: −2.886
IL21 Predicted Activation State [3]: Inhibited
IL33 Activation z-score [3]: −3.781
IL33 Predicted Activation State [3]: Inhibited
Ifn gamma Activation z-score [3]: −3.354
Ifn gamma Predicted Activation State [3]: Inhibited
Ige Activation z-score [3]: −4.883
Ige Predicted Activation State [3]: Inhibited
LDL Activation z-score [3]: −3.568
LDL Predicted Activation State [3]: Inhibited
LGR5 Activation z-score [3]: 2.137
LGR5 Predicted Activation State [3]: Activated
Laminin (complex) Activation z-score [3]: 2.043
Laminin (complex) Predicted Activation State [3]: Activated
NFkB (complex) Activation z-score [3]: −5.503
NFkB (complex) Predicted Activation State [3]: Inhibited
NRG1 Activation z-score [3]: −3.478
NRG1 Predicted Activation State [3]: Inhibited
OSM Activation z-score [3]: −5.912
OSM Predicted Activation State [3]: Inhibited
PDGF BB Activation z-score [3]: −3.976
PDGF BB Predicted Activation State [3]: Inhibited
PDGFB Activation z-score [3]: −2.622
PDGFB Predicted Activation State [3]: Inhibited
PF4 Activation z-score [3]: −2.219
PF4 Predicted Activation State [3]: Inhibited
PI3K (complex) Activation z-score [3]: −3.293
PI3K (complex) Predicted Activation State [3]: Inhibited
PLA2R1 Activation z-score [3]: 2.917
PLA2R1 Predicted Activation State [3]: Activated
PRL Activation z-score [3]: −3.529
PRL Predicted Activation State [3]: Inhibited
PROKR1 Activation z-score [3]: 2
PROKR1 Predicted Activation State [3]: Activated
PTGER4 Activation z-score [3]: 2.017
PTGER4 Predicted Activation State [3]: Activated
Pdgf (complex) Activation z-score [3]: −2.779
Pdgf (complex) Predicted Activation State [3]: Inhibited
SMO Activation z-score [3]: 2.621
SMO Predicted Activation State [3]: Activated
TCR Activation z-score [3]: −2.362
TCR Predicted Activation State [3]: Inhibited
TGFB1 Activation z-score [3]: −5.163
TGFB1 Predicted Activation State [3]: Inhibited
TGFB2 Activation z-score [3]: −2.631
TGFB2 Predicted Activation State [3]: Inhibited
TGFB3 Activation z-score [3]: −2.663
TGFB3 Predicted Activation State [3]: Inhibited
TLR3 Activation z-score [3]: −5.02
TLR3 Predicted Activation State [3]: Inhibited
TLR4 Activation z-score [3]: −4.561
TLR4 Predicted Activation State [3]: Inhibited
TLR9 Activation z-score [3]: −4.894
TLR9 Predicted Activation State [3]: Inhibited
TNF Activation z-score [3]: −6.593
TNF Predicted Activation State [3]: Inhibited
TNFRSF1A Activation z-score [3]: −2.449
TNFRSF1A Predicted Activation State [3]: Inhibited
TNFSF11 Activation z-score [3]: −2.519
TNFSF11 Predicted Activation State [3]: Inhibited
TNFSF12 Activation z-score [3]: −3.271
TNFSF12 Predicted Activation State [3]: Inhibited
TREM1 Activation z-score [3]: −3.62
TREM1 Predicted Activation State [3]: Inhibited
TSLP Activation z-score [3]: −2.533
TSLP Predicted Activation State [3]: Inhibited
TYROBP Activation z-score [3]: −2.376
TYROBP Predicted Activation State [3]: Inhibited
VEGFA Activation z-score [3]: −2.501
VEGFA Predicted Activation State [3]: Inhibited
VEGFB Activation z-score [3]: 3.128
VEGFB Predicted Activation State [3]: Activated
WNT3A Activation z-score [3]: −3.711
WNT3A Predicted Activation State [3]: Inhibited

Source: patent US20210353593A1 (Chinook Therapeutics, Inc., priority 2019, published 2021)
